In assay [1] the test system is MCF7. As to the kind of experiment: Cytotoxicity against human MCF7 cells at 100 ug/ml after 48 hrs by MTT assay. It is filed as functional, cell-based. For orientation: Tetrazolium assays rely on reduction of a dye to a coloured formazan, in cell work by metabolically active cells.
Assay [2] deals with MCF7. Put plainly: Cytotoxicity against human MCF7 cells at 5 ug/ml after 48 hrs by MTT assay. It is filed as functional, cell-based.

Each structure is given as a SMILES string. Activity calls are given as the source filed them. No cut-off for these calls is given here.

On to `CC(C)[C@H]1CC[C@@H]2C(=O)C=C(CO)CC[C@@]21C` (relative stereo), for which the outcome with MCF7 [1] was inactive.

`CC(C)[C@H]1CC[C@@H]2C=CC(=O)CC[C@]12C` (relative stereo): the result in the assay on MCF7 [2] was Active.

As to `CC1=CC(=O)[C@H]2CC[C@H](C(C)C)[C@@]2(C)CC1` (relative stereo), the result in the assay on MCF7 [1] was inactive.
